Laboratory results taken from patent publication US12240840B2, “Amide-substituted heterocyclic compounds for the treatment of conditions related to the modulation of IL-12, IL-23 and/or IFN-alpha” (BRISTOL-MYERS SQUIBB COMPANY, priority 2018, dated 2025).

Tested on: IFNα-induced pSTAT5 (pY694) in CD3 positive cells of human whole blood
Assay: IFNα-Induced STAT Phosphorylation in Human Whole Blood
Type: cell-based
Settings: Homo sapiens, 1 h compound incubation, 1000 U/mL recombinant human IFNα A/D for 15 min, pSTAT5 in CD3 positive population, read-out: Human WB IFNα-Induced Stat Phosph. (IC50)
Procedure, shortened: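 Read-out is median fluorescence intensity of pSTAT5 (pY694) in the CD3-positive gate, by flow cytometry after fix/lyse and permeabilization. Before that, whole human blood anticoagulated with EDTA or ACD-A received compound for an hour and 1000 U/mL IFNα A/D for 15 min.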

First: COc1c(Nc2cc(N)nnc2C(N)=O)cccc1-c1noc(CN2CCN(S(C)(=O)=O)CC2)n1 [Example 109]
Second: COC(=O)N1CCN(Cc2nc(-c3cccc(Nc4cc(N)nnc4C(N)=O)c3OC)no2)CC1 [Example 105]
The IC50 of the first is higher: greater than 10000 nM for the first, 1830 nM for the second.

`[2H]C([2H])([2H])NC(=O)c1nnc(NC(=O)C2CC2)cc1Nc1cccc(-c2ncc(C(=O)N3CCCN(C)CC3)s2)c1OC` [Example 294] and `[2H]C([2H])([2H])NC(=O)c1nnc(NC(=O)C2CC2)cc1Nc1cccc(-c2ncc(C(=O)N3CCOCC3)s2)c1OC` [Example 268] are within 1.5-fold of each other in IC50: 70 nM for the first, 100 nM for the second.

Compared with `[2H]C([2H])([2H])NC(=O)c1nnc(NC(=O)C2CC2)cc1Nc1cccc(-c2nc(CNC)no2)c1OC` [Example 168], `[2H]C([2H])([2H])NC(=O)c1nnc(NC(=O)C2CC2)cc1Nc1cccc(-c2nc(CC(C)C)no2)c1OC` [Example 122] is higher in IC50: 230 nM for the first, greater than 10000 nM for the second.

First: [2H]C([2H])([2H])NC(=O)c1nnc(NC(=O)C2CC2)cc1Nc1cccc(-c2ncc(NC(C)=O)s2)c1OC [Example 279]
Second: [2H]C([2H])([2H])NC(=O)c1nnc(NC(=O)C2CC2)cc1Nc1cccc(-c2ncc(NC(=O)CC#N)s2)c1OC [Example 284]
The IC50 of the first is lower: 470 nM for the first, greater than 10000 nM for the second. The first is the more potent here.

Compared with `[2H]C([2H])([2H])NC(=O)c1nnc(NC(=O)C2CC2)cc1Nc1cccc(-c2ncc(C(=O)NCCCCC)s2)c1OC` [Example 316], `[2H]C([2H])([2H])NC(=O)c1nnc(NC(=O)C2CC2)cc1Nc1cccc(-c2ncc(C(=O)NCC)s2)c1OC` [Example 272] is 2.1-fold lower in IC50: 330 nM for the first, 160 nM for the second. The second is the more potent here.

Going from `[2H]C([2H])([2H])NC(=O)c1nnc(Nc2ccc(OC)nn2)cc1Nc1cccc(-c2csc(C(=O)NCCOC)n2)c1OC` [Example 565] to `[2H]C([2H])([2H])NC(=O)c1nnc(Nc2cnc(OC)cn2)cc1Nc1cccc(-c2csc(C(=O)NCCOC)n2)c1OC` [Example 570], the IC50 rises from 250 nM to 930 nM (3.7-fold). The first is the more potent here.

First: [2H]C([2H])([2H])NC(=O)c1nnc(NC(=O)C2CC2)cc1Nc1cccc(-c2ncc(CC(=O)N3CCOCC3)s2)c1OC [Example 253]
Second: [2H]C([2H])([2H])NC(=O)c1nnc(NC(=O)C2CC2)cc1Nc1cccc(-c2ncc(CC(=O)N3CCS(=O)(=O)CC3)s2)c1OC [Example 250]
The IC50 of the first is 2.1-fold lower: 300 nM for the first, 640 nM for the second.

`[2H]C([2H])([2H])NC(=O)c1nnc(NC(=O)C2CC2)cc1Nc1cc(F)cc(-c2cc(C(=O)N3C[C@@H](C)O[C@@H](C)C3)n(C)n2)c1OC` [Example 499] and `[2H]C([2H])([2H])NC(=O)c1nnc(NC(=O)C2CC2)cc1Nc1cccc(-c2cc(C(=O)N3C[C@@H](C)O[C@@H](C)C3)n(C)n2)c1OC` [Example 525] are within 1.5-fold of each other in IC50: 180 nM for the first, 240 nM for the second.

Going from `[2H]C([2H])([2H])NC(=O)c1nnc(NC(=O)C2CC2)cc1Nc1cccc(-c2ncc(C(=O)N3CC(C)(O)C3)s2)c1OC` [Example 346] to `[2H]C([2H])([2H])NC(=O)c1nnc(NC(=O)C2CC2)cc1Nc1cccc(-c2ncc(C(=O)N3CC(CO)C3)s2)c1OC` [Example 345], the IC50 rises from 90 nM to 180 nM (2-fold).

Compared with `[2H]C([2H])([2H])NC(=O)c1nnc(NC(=O)C2CC2)cc1Nc1cccc(-c2ncc(C(=O)N3CCN(S(=O)(=O)C=C)CC3)s2)c1OC` [Example 241], `[2H]C([2H])([2H])NC(=O)c1nnc(NC(=O)C2CC2)cc1Nc1cccc(-c2ncc(C(=O)N3CCC(N4CCCC4)CC3)s2)c1OC` [Example 350] is 16-fold lower in IC50: 620 nM for the first, 40 nM for the second. The second is the more potent here.

First: [2H]C([2H])([2H])NC(=O)c1nnc(NC(=O)C2CC2)cc1Nc1cccc(-c2ncc(C(=O)N3CCC3C)s2)c1OC (centres unmarked) [Example 328]
Second: [2H]C([2H])([2H])NC(=O)c1nnc(NC(=O)C2CC2)cc1Nc1cccc(-c2ncc(C(=O)NC3CCCN(C)C3)s2)c1OC (centres unmarked) [Example 337]
The IC50 of the first is 2.3-fold higher: 160 nM for the first, 70 nM for the second. The second is the more potent here.

Compared with `[2H]C([2H])([2H])NC(=O)c1nnc(NC(=O)C2CC2)cc1Nc1cccc(-c2nc(C)c(C(=O)N3CCC3)s2)c1OC` [Example 358], `[2H]C([2H])([2H])NC(=O)c1nnc(NC(=O)C2CC2)cc1Nc1cccc(-c2ncc(CNC(C)=O)s2)c1OC` [Example 261] is 3.2-fold higher in IC50: 210 nM for the first, 680 nM for the second. The first is the more potent here.

Going from `COc1c(Nc2cc(NC(=O)C3CC3)nnc2C(N)=O)cccc1-c1noc([C@H]2CCCN2S(C)(=O)=O)n1` [Example 53] to `COc1c(Nc2cc(NC(=O)C3CC3)nnc2C(N)=O)cccc1-c1noc(CNS(=O)(=O)C2CC2)n1` [Example 49], the IC50 falls from 210 nM to 50 nM (4.2-fold).

`[2H]C([2H])([2H])NC(=O)c1nnc(NC(=O)C2CC2)cc1Nc1cccc(-c2nc([C@@H](C)NC(=O)OC(C)(C)C)no2)c1OC` [Example 193] and `[2H]C([2H])([2H])NC(=O)c1nnc(NC(=O)C2CC2)cc1Nc1cccc(-c2nc([C@@H](COC(C)(C)C)NC(=O)OC(C)(C)C)no2)c1OC` [Example 219] are within 1.5-fold of each other in IC50: 7360 nM for the first, 5240 nM for the second.

First: [2H]C([2H])([2H])NC(=O)c1nnc(NC(=O)C2CC2)cc1Nc1cccc(-c2cc(C(=O)N3CCN(C(C)C)CC3)n(C)n2)c1OC [Example 531]
Second: [2H]C([2H])([2H])NC(=O)c1nnc(NC(=O)C2CC2)cc1Nc1cccc(-c2cc(C(=O)N3CC4CN(C)CC4C3)n(C)n2)c1OC (centres unmarked) [Example 491]
The IC50 of the first is 4.3-fold lower: 60 nM for the first, 260 nM for the second. The first is the more potent here.

Compared with `[2H]C([2H])([2H])NC(=O)c1nnc(NC(=O)C2CC2)cc1Nc1cccc(-c2nc(CN3CCN(C(=O)c4cccnc4)CC3)no2)c1OC` [Example 131], `[2H]C([2H])([2H])NC(=O)c1nnc(NC(=O)C2CC2)cc1Nc1cccc(-c2nc(CN3CCN(C(=O)CC#N)CC3)no2)c1OC` [Example 134] is 6.7-fold lower in IC50: 740 nM for the first, 110 nM for the second.

First: [2H]C([2H])([2H])NC(=O)c1nnc(NC(=O)C2CC2)cc1Nc1cccc(-c2ccn(CC(=O)NCCOC)n2)c1OC [Example 471]
Second: [2H]C([2H])([2H])NC(=O)c1nnc(NC(=O)C2CC2)cc1Nc1cccc(-c2csc(C(=O)NCCOC)n2)c1OC [Example 566]
The IC50 of the first is 2.3-fold higher: 1590 nM for the first, 680 nM for the second. The second is the more potent here.

`[2H]C([2H])([2H])NC(=O)c1nnc(NC(=O)C2CC2)cc1Nc1cccc(-c2ncc(C(=O)NCCCN3CCN(C(C)C)CC3)s2)c1OC` [Example 341] and `[2H]C([2H])([2H])NC(=O)c1nnc(NC(=O)C2CC2)cc1Nc1cccc(-c2ncc(C(=O)N(C)CC)s2)c1OC` [Example 291] are the same in IC50: 110 nM for the first, 110 nM for the second.

Going from `[2H]C([2H])([2H])NC(=O)c1cnc(NC(=O)C2CC2)cc1Nc1cccc(-c2nc(C(C)(C)O)no2)c1OC` [Example 218] to `[2H]C([2H])([2H])NC(=O)c1cnc(NC(=O)C2CC2)cc1Nc1cccc(-c2nc(C(C)N3CCN(C(C)=O)CC3)no2)c1OC` (centres unmarked) [Example 222], the IC50 rises from 390 nM to 1480 nM (3.8-fold). The first is the more potent here.

Going from `[2H]C([2H])([2H])NC(=O)c1nnc(NC(=O)C2CC2)cc1Nc1cc(F)cc(-c2cc(C(=O)N3CCN(C)CC3)n(C)n2)c1OC` [Example 497] to `[2H]C([2H])([2H])NC(=O)c1nnc(NC(=O)C2CC2)cc1Nc1cc(F)cc(-c2cc(C(=O)N3CCNC(=O)C3)n(C)n2)c1OC` [Example 519], the IC50 rises from 110 nM to 570 nM (5.2-fold). The first is the more potent here.

First: [2H]C([2H])([2H])NC(=O)c1nnc(NC(=O)C2CC2)cc1Nc1cccc(-c2nc(CN3CC4CN(C(C)=O)CC4C3)no2)c1OC (centres unmarked) [Example 233]
Second: [2H]C([2H])([2H])NC(=O)c1nnc(NC(=O)C2CC2)cc1Nc1cccc(-c2nc(CC(=O)N3CCOCC3)no2)c1OC [Example 179]
The IC50 of the first is 2.9-fold lower: 100 nM for the first, 290 nM for the second.

Going from `[2H]C([2H])([2H])NC(=O)c1cnc(Nc2cc(C)ccn2)cc1Nc1cccc(-c2noc(COCC)n2)c1OC` [Example 100] to `[2H]C([2H])([2H])NC(=O)c1cnc(NC(=O)C2CC2)cc1Nc1cccc(-c2noc(CN3CCOCC3)n2)c1OC` [Example 96], the IC50 falls from 60 nM to 15 nM (4-fold). The second is the more potent here.

Going from `[2H]C([2H])([2H])NC(=O)c1nnc(NC(=O)C2CC2)cc1Nc1cccc(-c2ncc(CC(=O)NCC(O)CO)s2)c1OC` (centres unmarked) [Example 248] to `[2H]C([2H])([2H])NC(=O)c1nnc(NC(=O)C2CC2)cc1Nc1cccc(-c2ncc(CN)s2)c1OC` [Example 260], the IC50 falls from 2240 nM to 540 nM (4.1-fold).

`[2H]C([2H])([2H])NC(=O)c1nnc(NC(=O)C2CC2)cc1Nc1cccc(-c2noc(CN3CCNCC3)n2)c1OC` [Example 35] and `[2H]C([2H])([2H])NC(=O)c1nnc(NC(=O)C2CC2)cc1Nc1cccc(-c2nc([C@@H](N)[C@@H](C)O)no2)c1OC` [Example 189] are within 1.5-fold of each other in IC50: 120 nM for the first, 100 nM for the second.

`[2H]C([2H])([2H])NC(=O)c1nnc(NC(=O)C2CC2)cc1Nc1cccc(-c2nc([C@H](NC(=O)CC)[C@H](C)O)no2)c1OC` [Example 208] and `[2H]C([2H])([2H])NC(=O)c1nnc(NC(=O)C2CC2)cc1Nc1cccc(-c2nc([C@@H](NC(=O)OC)[C@@H](C)O)no2)c1OC` [Example 188] are the same in IC50: 1270 nM for the first, 1270 nM for the second.

Going from `[2H]C([2H])([2H])NC(=O)c1nnc(Nc2cc(C(C)(C)O)ccn2)cc1Nc1cccc(-c2csc(C(=O)NCCOC)n2)c1OC` [Example 571] to `[2H]C([2H])([2H])NC(=O)c1nnc(Nc2cc(C(C)(C)O)ccn2)cc1Nc1cccc(-c2cn(CCN3CCOCC3)nn2)c1OC` [Example 425], the IC50 falls from 1760 nM to 670 nM (2.6-fold).

First: [2H]C([2H])([2H])NC(=O)c1nnc(NC(=O)C2CC2)cc1Nc1cccc(-c2cc(C)n(CCN)n2)c1OC [Example 462]
Second: [2H]C([2H])([2H])NC(=O)c1nnc(NC(=O)C2CC2)cc1Nc1cccc(-c2cnn(CCNC(=O)COC)n2)c1OC [Example 433]
The IC50 of the first is 28-fold higher: 4450 nM for the first, 160 nM for the second.

First: [2H]C([2H])([2H])NC(=O)c1nnc(Nc2ccc(OC)nn2)cc1Nc1cccc(-c2ncc(CNC(=O)OC)s2)c1OC [Example 391]
Second: [2H]C([2H])([2H])NC(=O)c1nnc(Nc2cnn(C)n2)cc1Nc1cccc(-c2ncc(CO)s2)c1OC [Example 386]
The IC50 of the first is 1.7-fold higher: 820 nM for the first, 490 nM for the second. The second is the more potent here.

Going from `COc1c(Nc2cc(NC(=O)C3CC3)nnc2C(N)=O)cccc1-c1ncc(C(=O)N2CCCCC2)s1` [Example 403] to `COc1c(Nc2cc(NC(=O)C3CC3)nnc2C(N)=O)cccc1-c1noc(CN(C)C)n1` [Example 63], the IC50 falls from 190 nM to 30 nM (6.3-fold).

For `COc1c(Nc2cc(NC(=O)C3CC3)nnc2C(N)=O)cccc1-c1noc(CN(C)S(=O)(=O)CC(F)(F)F)n1` [Example 55], the IC50 was 40 nM.
